{"source": "patent US11260097B2", "about": "“Immunomodulatory composition to treat and/or prevent COVID-19 illness” (priority 2020, dated 2022)", "origin": "cited, not measured here", "key": {"[1]": {"conditions": "high doses"}, "[2]": {"conditions": "in vivo"}}, "data": [{"compound": "CC1=CC(=O)C(C(C)C)=CC1=O", "note": "[thymoquinone, 2-isopropyl-5-methyl-1,4benzoquinone]", "values": [{"measurement": "water solubility", "result": "poor water solubility"}, {"measurement": "toxicity", "setting": "[1]", "result": "toxicity at high doses"}]}, {"compound": "Nigellidine", "values": [{"measurement": "solubility in acid media", "result": "soluble in acid media"}]}, {"compound": "glycophosphopeptical [AM3]", "values": [{"measurement": "onset of clinical improvement in cough, sputum and shortness of breath", "setting": "[2]", "result": 3, "unit": "days"}]}, {"compound": "C[C@@H]1O[C@@H](O[C@H]2[C@H](O[C@H]3CC[C@@]4(C)[C@@H](CC[C@]5(C)[C@@H]4CC=C4[C@@H]6CC(C)(C)CC[C@]6(C(=O)O)CC[C@]45C)[C@]3(C)CO)OC[C@H](O)[C@@H]2O)[C@H](O)[C@H](O)[C@H]1O", "note": "[alpha-heridin, alpha-hederin]", "values": [{"measurement": "water solubility", "result": "water soluble"}]}]}
